Patent US6699506B1, “Pharmaceutical composition with extended release of Milnacipran” (Pierre Fabre Medicament, priority 1996, dated 2004)
Converted amounts (≈) assume the structure as drawn.

Tests used:
[1] = test system: serotonin; conditions: cited from earlier work
[2] = test system: noradrenaline; conditions: cited from earlier work
[3] = physchem; conditions: water, aqueous solubility
[4] = in vivo
[5] = test system: dopamine; conditions: cited from earlier work
[6] = activity of the isomers

Compound	inhibition of the capture of serotonin [1]	inhibition of the capture of noradrenaline [2]	solubility [3] [mg/mL]	bioavailability [4] [%]	half-life [4] [h]	effect on dopamine [5]	activity of isomeric forms [6]
CCN(CC)C(=O)C1(c2ccccc2)CC1CN (stereo not shown) [Milnacipran]	mixed inhibition	mixed inhibition	800 (≈ 3250 mM)	> 85	7 to 9	no effect	
CCN(CC)C(=O)[C@@]1(c2ccccc2)C[C@H]1CN [dextrorotatory form]							more active than the levorotatory form
